One compound from paper PMC10857906, “PROTAC-mediated NR4A1 degradation as a novel strategy for cancer immunotherapy” (The Journal of Experimental Medicine, 2024) can be followed below.

The structures appear in SMILES notation.

The test system of this test is TI-B cells. The test can be described thus: Immune profile by flow cytometry in Yumm1.7 tumor-bearing mice. Type of test: in vivo, mouse. The settings on record: Yumm1.7 tumors, 2 doses of 1.8 mg/kg i.p. The method, then: For syngeneic tumor models, 5 × 10^5 cells MC38, Yumm1.7, and Yummer1.7, 1 × 10^5 cells of B16F10 were resuspended in PBS and implanted into 7–9-wk-old mice subcutaneously. For the tumor inhibition experiment, mice were treated with 1.8 mg/kg NR-V04 or 0.75 mg/kg celastrol by i.p. injection twice weekly. For the immune profile experiment, once tumors reached 0.5 cm in diameter, mice were treated with 1.8 mg/kg NR-V04 by i.p. injection twice weekly. For the toxicity experiment, male and female non-tumor-bearing mice were treated with 2 mg/kg NR-V04 for two doses in the first week and 5 mg/kg for another two doses in the second week. Blood samples were taken from the submandibular (facial) vein before each treatment and 42 days later for hematological analysis, and body weight was measured twice per week up to day 42. Mice were euthanized in accordance with the IACUC protocol once the largest tumors reached 2 cm in diameter, and tissues were collected for further analysis.
Mouse tumors were excised and ∼200 mg of tumor tissue was enzymatically and mechanically digested using the mouse Tumor Dissociation Kit (Miltenyi Biotec) to obtain a single-cell suspension. […] Flow cytometry was performed on a three laser Cytek Aurora Cytometer (Cytek Biosciences) and analyzed using FlowJo software (BD Biosciences). […]
A general note: A flow cytometer gives signals particle by particle.

As to `CC1=C(O)C(=O)C=C2C1=CC=C1[C@@]2(C)CC[C@@]2(C)[C@@H]3C[C@](C)(C(=O)NCCOCCOCCOCCOCC(=O)N[C@H](C(=O)N4C[C@H](O)C[C@H]4C(=O)N[C@@H](C)c4ccc(-c5scnc5C)cc4)C(C)(C)C)CC[C@]3(C)CC[C@]12C` [NR-V04], the TI-B cells entry is “significant increase in the TI-B cells”.
